What was measured:
OATP1B1 = target: T1, OATP1B1 (Homo sapiens, UniProt Q9Y6L6); test: OATP1B1 inhibition, β-estradiol 17-(β-D-glucuronide) uptake in transfected HEK293 cells
T1 sequence (Q9Y6L6 1-691): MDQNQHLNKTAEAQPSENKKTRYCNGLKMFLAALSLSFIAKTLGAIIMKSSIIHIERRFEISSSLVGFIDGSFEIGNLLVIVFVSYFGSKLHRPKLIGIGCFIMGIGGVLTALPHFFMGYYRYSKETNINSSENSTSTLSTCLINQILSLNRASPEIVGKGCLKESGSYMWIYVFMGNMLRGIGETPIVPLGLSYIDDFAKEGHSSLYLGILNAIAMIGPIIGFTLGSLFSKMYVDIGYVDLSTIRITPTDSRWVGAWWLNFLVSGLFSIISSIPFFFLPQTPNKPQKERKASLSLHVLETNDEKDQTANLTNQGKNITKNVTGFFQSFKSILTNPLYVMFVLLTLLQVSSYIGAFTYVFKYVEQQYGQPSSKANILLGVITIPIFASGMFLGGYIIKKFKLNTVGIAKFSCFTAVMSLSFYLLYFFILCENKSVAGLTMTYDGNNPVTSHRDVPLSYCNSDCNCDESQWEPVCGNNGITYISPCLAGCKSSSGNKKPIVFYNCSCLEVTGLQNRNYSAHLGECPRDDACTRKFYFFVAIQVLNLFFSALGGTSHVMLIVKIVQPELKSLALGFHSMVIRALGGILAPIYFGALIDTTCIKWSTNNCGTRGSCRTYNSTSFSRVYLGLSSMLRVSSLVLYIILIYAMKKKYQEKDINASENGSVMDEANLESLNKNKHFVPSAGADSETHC
Experimental: (§1) The pre-incubation solutions were removed, and incubation solutions containing the inhibitors and probe substrates (or transport buffer containing an equal volume of vehicle control and probe substrates) were added and incubated at 37°C for 2 min (5 min for OATP1B3). The probe substrate for OAT1 was 4-aminohippuric acid (10 μM), for OAT3 was estrone 3-sulfate (10 μM), for OCT2 was metformin (100 μM), for OATP1B1 was β-estradiol 17-(β-D-glucuronide) (5 μM), for OATP1B3 was β-estradiol 17-(β-D-glucuronide) (10 μM), and for MATE1 and MATE2-K was tetraethylammonium (10 μM). After incubation, cells were washed three times with ice-cold transport buffer (25 mM HEPES, pH 7.4, pH 8.0 for overexpressing MATE1 and MATE2-K HEK293 cells) and lysed in distilled water. The concentrations of probe substrates were determined by LC-MS/MS, and a BCA Kit (Solarbio ®Life Sciences, Beijing, China) was used to determine the protein content in the cell lysate.
(§2) where C is the concentration of the drug in the cell lysate (nM), P is the protein concentration of the cell lysate (mg/mL), and T is the incubation time (minute). Uptake ratetest compound is the uptake rate of the substrate in the presence of the test compound. Uptake ratevehicle control is the uptake rate of the substrate in the presence of the vehicle control. Uptake ratepassive is the uptake rate of the substrate in the presence of the positive inhibitor at the top test concentration.

MATE2-K = MATE2-K (Homo sapiens, UniProt Q86VL8); test: MATE2-K inhibition, tetraethylammonium uptake in transfected HEK293 cells; details: for Percentage transported / Uptake rate: MATE2-K
MATE2-K, sequence (Q86VL8 1-566 isoform Q86VL8-3): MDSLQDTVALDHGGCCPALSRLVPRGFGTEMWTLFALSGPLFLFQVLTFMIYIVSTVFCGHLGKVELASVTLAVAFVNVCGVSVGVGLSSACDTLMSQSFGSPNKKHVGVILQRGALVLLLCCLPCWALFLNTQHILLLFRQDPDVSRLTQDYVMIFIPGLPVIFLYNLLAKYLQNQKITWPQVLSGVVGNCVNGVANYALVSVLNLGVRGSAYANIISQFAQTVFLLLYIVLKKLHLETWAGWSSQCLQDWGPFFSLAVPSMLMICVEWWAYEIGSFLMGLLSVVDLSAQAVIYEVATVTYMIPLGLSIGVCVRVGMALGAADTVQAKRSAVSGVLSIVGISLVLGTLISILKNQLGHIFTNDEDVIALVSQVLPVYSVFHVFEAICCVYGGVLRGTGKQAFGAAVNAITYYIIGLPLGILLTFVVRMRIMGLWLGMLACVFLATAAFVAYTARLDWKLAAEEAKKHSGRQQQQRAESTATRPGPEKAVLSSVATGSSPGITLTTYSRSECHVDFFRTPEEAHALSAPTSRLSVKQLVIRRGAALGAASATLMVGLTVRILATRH
Experimental: as §1, §2

Question: For `C[C@H](Nc1ncnc(N)c1C#N)c1cc2ncc(Cl)n2nc1-c1ccccc1` [Amdizalisib], which IC50 (OATP1B1) is on record?
Answer: The IC50 was 7.27 µM.

Question: What about the Percentage transported (OATP1B1; human, 2 min, 0.3 μM, pH 7.4) of the same compound?
Answer: The Percentage transported was 113%.

Question: And the Uptake rate (OATP1B1; human, 2 min, 0.3 μM, pH 7.4)?
Answer: Its Uptake rate is 59.0±1.42 pmol/mg protein/min.

Question: What about the Percentage transported (OATP1B1; human, 2 min, 1 μM, pH 7.4) of the same compound?
Answer: Its Percentage transported is 105%.

Question: What about the Uptake rate (OATP1B1; human, 2 min, 1 μM, pH 7.4) of the same compound?
Answer: The Uptake rate was 55.1±2.95 pmol/mg protein/min.

Question: And the Percentage transported (OATP1B1; human, 2 min, 3 μM, pH 7.4)?
Answer: Its Percentage transported is 86.5%.

Question: What about the Uptake rate (OATP1B1; human, 2 min, 3 μM, pH 7.4) of the same compound?
Answer: The Uptake rate was 47.2±3.13 pmol/mg protein/min.

Question: What about the Percentage transported (OATP1B1; human, 2 min, 10 μM, pH 7.4) of the same compound?
Answer: The Percentage transported was 32.7%.

Question: What about the Uptake rate (OATP1B1; human, 2 min, 10 μM, pH 7.4) of the same compound?
Answer: Its Uptake rate is 19.3±4.10 pmol/mg protein/min.

Question: What about the Percentage transported (OATP1B1; human, 2 min, 30 μM, pH 7.4) of the same compound?
Answer: Its Percentage transported is 8.04%.

Question: And the Percentage transported (OATP1B1; human, 2 min, 100 μM, pH 7.4)?
Answer: The Percentage transported was -3.17%.

Question: And the Uptake rate (OATP1B1; human, 2 min, 100 μM, pH 7.4)?
Answer: The Uptake rate was 1.46±0.141 pmol/mg protein/min.

Question: What about the “calculated R value (OATP1B1)” value (OATP1B1; human, 2 min, pH 7.4) of the same compound?
Answer: Its value is 3.8.

Question: What about the inhibition at 2 min, 0.3 µM (OATP1B1; human, pH 7.4) of the same compound?
Answer: Its inhibition at 2 min, 0.3 µM is -12.5%.

Question: And the inhibition at 2 min, 1 µM (OATP1B1; human, pH 7.4)?
Answer: Its inhibition at 2 min, 1 µM is -4.64%.

Question: What about the inhibition at 2 min, 3 µM (OATP1B1; human, pH 7.4) of the same compound?
Answer: Its inhibition at 2 min, 3 µM is 13.5%.

Question: What about the inhibition at 2 min, 10 µM (OATP1B1; human, pH 7.4) of the same compound?
Answer: Its inhibition at 2 min, 10 µM is 67.3%.

Question: And the inhibition at 2 min, 30 µM (OATP1B1; human, pH 7.4)?
Answer: Its inhibition at 2 min, 30 µM is 92%.

Question: And the inhibition at 2 min, 100 µM (OATP1B1; human, pH 7.4)?
Answer: The inhibition at 2 min, 100 µM was 103%.

Question: What about the IC50 (MATE2-K) of the same compound?
Answer: The IC50 was 38.2 µM.

Question: And the “calculated R value (MATE2-K)” value (MATE2-K)?
Answer: Its value is under 1.1.

Question: What about the Percentage transported (MATE2-K; compound 0.3 μM) of the same compound?
Answer: Its Percentage transported is 87.1%.

Question: And the Uptake rate (MATE2-K; compound 0.3 μM)?
Answer: The Uptake rate was 125±3.49 pmol/mg protein/min.

Question: What about the Percentage transported (MATE2-K; compound 1 μM) of the same compound?
Answer: Its Percentage transported is 89.9%.

Question: What about the Uptake rate (MATE2-K; compound 1 μM) of the same compound?
Answer: Its Uptake rate is 129±7.96 pmol/mg protein/min.

Question: And the Percentage transported (MATE2-K; compound 3 μM)?
Answer: Its Percentage transported is 89.0%.

Question: What about the Uptake rate (MATE2-K; compound 3 μM) of the same compound?
Answer: Its Uptake rate is 127±5.50 pmol/mg protein/min.

Question: And the Percentage transported (MATE2-K; compound 10 μM)?
Answer: Its Percentage transported is 89.6%.

Question: And the Uptake rate (MATE2-K; compound 10 μM)?
Answer: The Uptake rate was 128±4.89 pmol/mg protein/min.

Question: And the Percentage transported (MATE2-K; compound 30 μM)?
Answer: Its Percentage transported is 49.3%.

Question: What about the Uptake rate (MATE2-K; compound 30 μM) of the same compound?
Answer: Its Uptake rate is 73.9±6.49 pmol/mg protein/min.

Question: What about the Percentage transported (MATE2-K; compound 100 μM) of the same compound?
Answer: Its Percentage transported is 29.6%.

Question: And the Uptake rate (MATE2-K; compound 100 μM)?
Answer: The Uptake rate was 47.4±3.61 pmol/mg protein/min.

Question: And the inhibition at 2 min, 0.3 µM (MATE2-K; human, pH 8)?
Answer: Its inhibition at 2 min, 0.3 µM is 12.9%.

Question: What about the inhibition at 2 min, 1 µM (MATE2-K; human, pH 8) of the same compound?
Answer: Its inhibition at 2 min, 1 µM is 10.1%.

Question: What about the inhibition at 2 min, 3 µM (MATE2-K; human, pH 8) of the same compound?
Answer: Its inhibition at 2 min, 3 µM is 11%.

Question: What about the inhibition at 2 min, 10 µM (MATE2-K; human, pH 8) of the same compound?
Answer: The inhibition at 2 min, 10 µM was 10.4%.

Question: And the inhibition at 2 min, 30 µM (MATE2-K; human, pH 8)?
Answer: Its inhibition at 2 min, 30 µM is 50.7%.

Question: And the inhibition at 2 min, 100 µM (MATE2-K; human, pH 8)?
Answer: The inhibition at 2 min, 100 µM was 70.4%.

Reference: article PMC11211886 (Frontiers in Pharmacology, 2024)
